In PubChem BioAssay (NCI):
“And” between values parts separate entries of the source, which are not always exact repeats. Identical values can stand only once.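 Test compounds were applied to cells in 96-well plates for 48 hours at 5 doses. GI50 marks 50% less growth. TGI: concentration producing complete growth inhibition.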

How the values were obtained:
Test in all cases: inhibition of tumour cell growth, NCI panel, 48 h
A549 NSCLC = test system: A549 NSCLC
CAKI-1 renal = test system: CAKI-1 renal
HOP-62 NSCLC = test system: HOP-62 NSCLC
IGROV1 ovarian = test system: IGROV1 ovarian
MCF7 breast = test system: MCF7 breast
MDA-MB-231 breast = test system: MDA-MB-231 breast
SF-295 CNS = test system: SF-295 CNS
SK-MEL-2 melanoma = test system: SK-MEL-2 melanoma
SF-268 CNS = test system: SF-268 CNS
SR leukemia = test system: SR leukemia

Row | SMILES | TGI (A549 NSCLC) | TGI (CAKI-1 renal) | TGI (HOP-62 NSCLC) | TGI (IGROV1 ovarian) | TGI (MCF7 breast) | TGI (MDA-MB-231 breast) | TGI (SF-295 CNS) | TGI (SK-MEL-2 melanoma) | TGI (SF-268 CNS) | TGI (SR leukemia) | GI50 (A549 NSCLC) | GI50 (CAKI-1 renal) | GI50 (HOP-62 NSCLC) | GI50 (IGROV1 ovarian) | GI50 (MCF7 breast) | GI50 (SF-295 CNS)
1 | COP(=O)(OC)C(N)Cc1c[nH]c2ccccc12 (stereo unspecified) | > 100 µM | > 100 µM | > 100 µM | > 100 µM | > 100 µM | > 100 µM | > 100 µM | > 100 µM |  |  |  |  |  |  |  | 
2 | O=C(NC(=S)Nc1ccc(Br)cc1)c1ccc2c(c1)Sc1ccccc1O2 | > 100 µM |  | > 100 µM | > 100 µM | > 100 µM | > 100 µM | > 100 µM | > 100 µM | > 100 µM | > 100 µM |  |  |  |  |  | 
3 | COc1ccc2c(c1OC)C(=O)C2 | > 100 µM |  | > 100 µM |  |  |  | > 100 µM | > 100 µM | > 100 µM | > 100 µM |  |  |  |  |  | 
4 | O=C1OC(C(O)CO)C(C(O)CO)OC1=O (stereo unspecified) | > 10 µM | > 10 µM | > 10 µM | > 10 µM | > 10 µM | > 10 µM | > 10 µM |  | > 10 µM | > 10 µM |  |  |  |  |  | 
5 | CS(=O)(=O)OCCN(CCOS(C)(=O)=O)c1ccc(C=Nc2ccc(-c3csc(Cc4ccccc4)n3)cc2)c(Cl)c1 | > 83.7 µM | 13.5 µM | > 55.5 µM | > 74.2 µM | 50.1 µM | 75.6 µM | > 86.3 µM | > 67.9 µM | > 100 µM | 74.3 µM |  |  |  |  |  | 
6 | O=C(N/N=C\c1ccc(Cl)cc1)Nc1ccc2ccccc2c1 | > 100 µM | > 100 µM | 51.3 µM | > 100 µM | > 100 µM | > 100 µM |  | > 100 µM | 71.3 µM | > 100 µM |  |  |  |  |  | 
7 | O=C1C=C(NCCc2ccc(O)c([N+](=O)[O-])c2)C(=O)c2[nH]cnc21 | 93.4 µM |  | > 100 µM | 54.8 µM | 78.1 µM | > 100 µM | 31.1 µM | 51.1 µM |  |  |  |  |  |  |  | 
8 | CC(O)C(CO)NC(=O)C1CSSCC(NC(=O)C(N)Cc2ccccc2)C(=O)NC(Cc2ccccc2)C(=O)NC(Cc2c[nH]c3ccccc23)C(=O)NC(CCCCN)C(=O)NC(C(C)O)C(=O)N1 (stereo unspecified) | > 100 µM | > 100 µM | > 100 µM | > 100 µM | > 100 µM | > 100 µM | > 100 µM |  | > 100 µM | > 100 µM |  |  |  |  |  | 
9 | O=c1c(NCc2ccccc2)c(C2(c3ccccc3F)SCCCS2)c1=O | > 100 µM | > 100 µM | > 100 µM | > 100 µM | > 100 µM | > 100 µM | > 100 µM | > 100 µM | > 100 µM |  |  |  |  |  |  | 
10 | CC(C)CC1c2[nH]c3ccccc3c2C[C@H]2C(=O)NC(Cc3c[nH]c4ccccc34)C(=O)N12 (stereo partly specified) | 71 µM | 66.1 µM | 45.9 µM | 36 µM | > 100 µM | 49.9 µM | 43.8 µM | 32.9 µM | 56.3 µM | 45.5 µM |  |  |  |  |  | 
11 | Cc1cccc2c(=O)c3cccc([C@H](C)C(=O)O)c3oc12 | > 100 µM | > 100 µM | > 100 µM | > 100 µM |  | > 100 µM | > 100 µM | > 100 µM | > 100 µM | > 100 µM |  |  |  |  |  | 
12 | O=C1/C(=C/c2cccc([N+](=O)[O-])c2)N=C(c2ccccc2)N1c1nc2ccc(Sc3ccccc3)cc2[nH]1 | > 100 µM | > 100 µM | > 100 µM | > 100 µM | > 100 µM | > 100 µM | > 100 µM | > 100 µM | > 100 µM | > 100 µM |  |  |  |  |  | 
13 | COc1ccc(C2CC(c3sc(Nc4ccc(C)cc4)nc3C)=NN2)cc1 (stereo unspecified) | 33 µM | 41.2 µM | 38.3 µM | > 56.9 µM | 31.7 µM |  | 30.5 µM | 30.7 µM | 37.4 µM |  |  |  |  |  |  | 
14 | COc1ccc(-c2cc(-c3ccc(C)cc3)n(C3OC(COC(C)=O)C(OC(C)=O)C(OC(C)=O)C3OC(C)=O)c(=S)c2C#N)cc1 (stereo unspecified) | > 100 µM | > 100 µM | > 100 µM | > 100 µM | > 100 µM | > 100 µM | > 100 µM |  | > 100 µM | > 100 µM |  |  |  |  |  | 
15 | COc1ccc2[nH]c3ccc4cc[n+](CCN5CCC(C6CCN(CC[n+]7ccc8ccc9[nH]c%10ccc(OC)cc%10c9c8c7)CC6)CC5)cc4c3c2c1 | 50 µM and > 62.2 µM | 50 µM and 68.1 µM | 50 µM and > 100 µM | 50 µM and > 19 µM | 50 µM and > 28.3 µM | 50 µM | 44.8 µM and 42.2 µM | > 90.7 µM | 50 µM and > 56.9 µM | 50 µM | 0.747 µM | 10.9 µM | 34.4 µM | 0.269 µM | 0.313 µM and 0.488 µM | 34.5 µM
16 | O=C(Nc1ccccc1C(=O)NCc1ccccc1)/C(=C/c1ccccc1O)NC(=O)c1ccccc1 | > 100 µM | > 100 µM | > 100 µM | > 100 µM | > 100 µM | > 100 µM | > 100 µM | > 100 µM | > 100 µM | > 100 µM |  |  |  |  |  | 
17 | N=c1oc2ccc3ccccc3c2cc1-c1nc2ccccc2c(=O)[nH]1 | 73.3 µM | > 100 µM | 45.4 µM | 75.9 µM | 30 µM | 73.4 µM | > 100 µM | 31.8 µM | > 100 µM | > 100 µM |  |  |  |  |  | 
18 | CCCCn1c(=O)[nH]c2c(N)ncnc21 | > 100 µM |  | > 100 µM | > 100 µM | > 100 µM | > 100 µM | > 100 µM | > 100 µM | > 100 µM |  |  |  |  |  |  | 
19 | CCCC(=O)OCC1OC(n2cc(F)c(=O)[nH]c2=O)CC1OC(=O)CCC (stereo unspecified) | > 10 µM | > 7.85 µM | > 10 µM | > 10 µM | > 10 µM | > 10 µM | > 10 µM | > 10 µM | > 10 µM | > 10 µM |  |  |  |  |  | 
20 | COc1cc2ncnc(NS(=O)(=O)c3cc4ccccc4s3)c2cc1OC | > 100 µM | > 100 µM | > 100 µM | > 100 µM | > 100 µM | > 100 µM | > 100 µM | > 100 µM | > 100 µM | > 100 µM |  |  |  |  |  | 
21 | O=C(COc1cc(=O)oc2ccccc12)c1ccccc1 | > 100 µM | 32.5 µM | > 100 µM | 76.7 µM | > 100 µM | > 100 µM | 87.4 µM | > 100 µM | > 100 µM | > 100 µM |  |  |  |  |  | 
